In ChEMBL document CHEMBL4130562, “Design, Synthesis, and Antibacterial Evaluation of Oxazolidinones with Fused Heterocyclic C-Ring Substructure” (ACS Med Chem Lett, 2017):
Values after ≈ are worked out from the molar mass of the structure shown.

Experiments:
Type in all cases: functional
Staphylococcus aureus [1] = test: Antibacterial activity against Staphylococcus aureus ATCC 6538P by microbroth dilution method
Staphylococcus aureus [2] = test: Antibacterial activity against Staphylococcus aureus ATCC 33591 by microbroth dilution method
Staphylococcus aureus [3] = test: Antibacterial activity against Staphylococcus aureus ATCC 29213 by microbroth dilution method
Staphylococcus aureus [4] = test: Antibacterial activity against methicillin-resistant Staphylococcus aureus 1201984 by microbroth dilution method
Staphylococcus aureus [5] = test: Antibacterial activity against linezolid-resistant Staphylococcus aureus by microbroth dilution method
Enterococcus faecalis = test: Antibacterial activity against Enterococcus faecalis ATCC 29212 by microbroth dilution method
Enterococcus faecium = test: Antibacterial activity against Enterococcus faecium 19434 by microbroth dilution method
Streptococcus pneumoniae = test: Antibacterial activity against Streptococcus pneumoniae 55143 by microbroth dilution method
Streptococcus pyogenes = test: Antibacterial activity against Streptococcus pyogenes ATCC 19615 by microbroth dilution method
[6] = system: Staphylococcus epidermidis; test: Antibacterial activity against Staphylococcus epidermidis ATCC 14990 by microbroth dilution method
Haemophilus influenzae = test: Antibacterial activity against Haemophilus influenzae ATCC 49247 by microbroth dilution method

O=C(CO)NC[C@H]1CN(c2ccc(-c3ccc4c(c3)NC(=O)CO4)c(F)c2)C(=O)O1
MIC (Staphylococcus aureus [1]): 0.25 mg/L (≈ 0.602 µM) | MIC (Staphylococcus aureus [2]): 1 mg/L (≈ 2.41 µM) | MIC (Staphylococcus aureus [3]): 1 mg/L (≈ 2.41 µM) | MIC (Staphylococcus aureus [4]): 1 mg/L (≈ 2.41 µM) | MIC (Staphylococcus aureus [5]): 4 mg/L (≈ 9.63 µM) | MIC (Enterococcus faecalis): 0.06 mg/L (≈ 0.144 µM) | MIC (Enterococcus faecium): 0.06 mg/L (≈ 0.144 µM) | MIC (Streptococcus pneumoniae): 0.125 mg/L (≈ 0.301 µM) | MIC (Streptococcus pyogenes): 0.125 mg/L (≈ 0.301 µM) | MIC [6]: 0.25 mg/L (≈ 0.602 µM) | MIC (Haemophilus influenzae): 0.5 mg/L (≈ 1.2 µM)

O=C1COc2ccc(-c3ccc(N4C[C@H](CO)OC4=O)cc3F)nc2N1
MIC (Staphylococcus aureus [1]): 0.125 mg/L (≈ 0.348 µM) | MIC (Staphylococcus aureus [2]): 0.125 mg/L (≈ 0.348 µM) | MIC (Staphylococcus aureus [3]): 0.5 mg/L (≈ 1.39 µM) | MIC (Staphylococcus aureus [4]): 0.25 mg/L (≈ 0.696 µM) | MIC (Staphylococcus aureus [5]): 4 mg/L (≈ 11.1 µM) | MIC (Enterococcus faecalis): 0.25 mg/L (≈ 0.696 µM) | MIC (Enterococcus faecium): 0.25 mg/L (≈ 0.696 µM) | MIC (Streptococcus pneumoniae): 0.25 mg/L (≈ 0.696 µM) | MIC (Streptococcus pyogenes): 0.25 mg/L (≈ 0.696 µM) | MIC [6]: < 0.06 mg/L | MIC (Haemophilus influenzae): 1 mg/L (≈ 2.78 µM)

O=C1COc2ccc(-c3ccc(N4C[C@H](CNC(=O)C5CC5)OC4=O)cc3F)cc2N1
MIC (Staphylococcus aureus [1]): 0.25 mg/L (≈ 0.588 µM) | MIC (Staphylococcus aureus [2]): 1 mg/L (≈ 2.35 µM) | MIC (Staphylococcus aureus [3]): 1 mg/L (≈ 2.35 µM) | MIC (Staphylococcus aureus [4]): 1 mg/L (≈ 2.35 µM) | MIC (Staphylococcus aureus [5]): 4 mg/L (≈ 9.4 µM) | MIC (Enterococcus faecalis): 0.25 mg/L (≈ 0.588 µM) | MIC (Enterococcus faecium): 0.125 mg/L (≈ 0.294 µM) | MIC (Streptococcus pneumoniae): 0.5 mg/L (≈ 1.18 µM) | MIC (Streptococcus pyogenes): 0.5 mg/L (≈ 1.18 µM) | MIC [6]: 0.25 mg/L (≈ 0.588 µM) | MIC (Haemophilus influenzae): 1 mg/L (≈ 2.35 µM)

O=C1CCOc2ccc(-c3ccc(N4C[C@H](CO)OC4=O)cc3F)cc2N1
MIC (Staphylococcus aureus [1]): 0.06 mg/L (≈ 0.161 µM) | MIC (Staphylococcus aureus [2]): 0.5 mg/L (≈ 1.34 µM) | MIC (Staphylococcus aureus [3]): 0.125 mg/L (≈ 0.336 µM) | MIC (Staphylococcus aureus [4]): 0.125 mg/L (≈ 0.336 µM) | MIC (Staphylococcus aureus [5]): 2 mg/L (≈ 5.37 µM) | MIC (Enterococcus faecalis): 0.25 mg/L (≈ 0.671 µM) | MIC (Enterococcus faecium): 0.125 mg/L (≈ 0.336 µM) | MIC (Streptococcus pneumoniae): 0.25 mg/L (≈ 0.671 µM) | MIC (Streptococcus pyogenes): 0.25 mg/L (≈ 0.671 µM) | MIC [6]: 0.06 mg/L (≈ 0.161 µM) | MIC (Haemophilus influenzae): 0.5 mg/L (≈ 1.34 µM)

O=C1COc2cc(-c3ccc(N4C[C@H](CO)OC4=O)cc3F)ccc2N1
MIC (Staphylococcus aureus [1]): 0.5 mg/L (≈ 1.4 µM) | MIC (Staphylococcus aureus [2]): 0.5 mg/L (≈ 1.4 µM) | MIC (Staphylococcus aureus [3]): 0.5 mg/L (≈ 1.4 µM) | MIC (Staphylococcus aureus [4]): 0.5 mg/L (≈ 1.4 µM) | MIC (Staphylococcus aureus [5]): 16 mg/L (≈ 44.7 µM) | MIC (Enterococcus faecalis): 1 mg/L (≈ 2.79 µM) | MIC (Enterococcus faecium): 1 mg/L (≈ 2.79 µM) | MIC (Streptococcus pneumoniae): 2 mg/L (≈ 5.58 µM) | MIC (Streptococcus pyogenes): 2 mg/L (≈ 5.58 µM) | MIC [6]: 0.5 mg/L (≈ 1.4 µM) | MIC (Haemophilus influenzae): 0.25 mg/L (≈ 0.698 µM)

O=C1O[C@@H](CO)CN1c1ccc(-c2cnc3ccc(=O)[nH]c3c2)c(F)c1
MIC (Staphylococcus aureus [1]): 0.25 mg/L (≈ 0.704 µM) | MIC (Staphylococcus aureus [2]): 0.25 mg/L (≈ 0.704 µM) | MIC (Staphylococcus aureus [3]): 0.5 mg/L (≈ 1.41 µM) | MIC (Staphylococcus aureus [4]): 16 mg/L (≈ 45 µM) | MIC (Staphylococcus aureus [5]): 8 mg/L (≈ 22.5 µM) | MIC (Enterococcus faecalis): 0.5 mg/L (≈ 1.41 µM) | MIC (Enterococcus faecium): 0.125 mg/L (≈ 0.352 µM) | MIC (Streptococcus pneumoniae): 0.25 mg/L (≈ 0.704 µM) | MIC (Streptococcus pyogenes): 0.25 mg/L (≈ 0.704 µM) | MIC [6]: 0.25 mg/L (≈ 0.704 µM) | MIC (Haemophilus influenzae): 0.5 mg/L (≈ 1.41 µM)

O=C1COc2ccc(-c3ccc(N4C[C@H](CNC(=O)C(F)F)OC4=O)cc3F)cc2N1
MIC (Staphylococcus aureus [1]): 0.125 mg/L (≈ 0.287 µM) | MIC (Staphylococcus aureus [2]): 0.5 mg/L (≈ 1.15 µM) | MIC (Staphylococcus aureus [3]): 0.5 mg/L (≈ 1.15 µM) | MIC (Staphylococcus aureus [4]): 0.5 mg/L (≈ 1.15 µM) | MIC (Staphylococcus aureus [5]): 4 mg/L (≈ 9.19 µM) | MIC (Enterococcus faecalis): 0.06 mg/L (≈ 0.138 µM) | MIC (Enterococcus faecium): 0.06 mg/L (≈ 0.138 µM) | MIC (Streptococcus pneumoniae): 0.25 mg/L (≈ 0.574 µM) | MIC (Streptococcus pyogenes): 0.25 mg/L (≈ 0.574 µM) | MIC [6]: 0.125 mg/L (≈ 0.287 µM) | MIC (Haemophilus influenzae): 0.5 mg/L (≈ 1.15 µM)

Cl.N=C(N)NC[C@H]1CN(c2ccc(-c3ccc4c(c3)NC(=O)CO4)c(F)c2)C(=O)O1
MIC (Staphylococcus aureus [1]): > 32 mg/L | MIC (Staphylococcus aureus [2]): > 32 mg/L | MIC (Staphylococcus aureus [3]): > 32 mg/L | MIC (Staphylococcus aureus [4]): > 32 mg/L | MIC (Staphylococcus aureus [5]): > 32 mg/L | MIC (Enterococcus faecalis): > 32 mg/L | MIC (Enterococcus faecium): > 32 mg/L | MIC (Streptococcus pneumoniae): > 32 mg/L | MIC (Streptococcus pyogenes): > 32 mg/L | MIC [6]: > 32 mg/L | MIC (Haemophilus influenzae): > 32 mg/L

CC1(C)Oc2ccc(-c3ccc(N4C[C@H](CO)OC4=O)cc3F)cc2NC1=O
MIC (Staphylococcus aureus [1]): 0.125 mg/L (≈ 0.324 µM) | MIC (Staphylococcus aureus [2]): 1 mg/L (≈ 2.59 µM) | MIC (Staphylococcus aureus [3]): 0.25 mg/L (≈ 0.647 µM) | MIC (Staphylococcus aureus [4]): 0.25 mg/L (≈ 0.647 µM) | MIC (Staphylococcus aureus [5]): 16 mg/L (≈ 41.4 µM) | MIC (Enterococcus faecalis): 0.5 mg/L (≈ 1.29 µM) | MIC (Enterococcus faecium): 0.25 mg/L (≈ 0.647 µM) | MIC (Streptococcus pneumoniae): 0.25 mg/L (≈ 0.647 µM) | MIC (Streptococcus pyogenes): 0.25 mg/L (≈ 0.647 µM) | MIC [6]: < 0.06 mg/L | MIC (Haemophilus influenzae): 0.125 mg/L (≈ 0.324 µM)

O=C1Cc2ccc(-c3ccc(N4C[C@H](CO)OC4=O)cc3F)cc2N1
MIC (Staphylococcus aureus [1]): 0.25 mg/L (≈ 0.73 µM) | MIC (Staphylococcus aureus [2]): 32 mg/L (≈ 93.5 µM) | MIC (Staphylococcus aureus [3]): 1 mg/L (≈ 2.92 µM) | MIC (Staphylococcus aureus [4]): 32 mg/L (≈ 93.5 µM) | MIC (Staphylococcus aureus [5]): 4 mg/L (≈ 11.7 µM) | MIC (Enterococcus faecalis): 0.25 mg/L (≈ 0.73 µM) | MIC (Enterococcus faecium): 0.25 mg/L (≈ 0.73 µM) | MIC (Streptococcus pneumoniae): 0.125 mg/L (≈ 0.365 µM) | MIC (Streptococcus pyogenes): 0.125 mg/L (≈ 0.365 µM) | MIC [6]: < 0.06 mg/L | MIC (Haemophilus influenzae): 2 mg/L (≈ 5.84 µM)

C[C@H]1COc2c(N3CCN(C)CC3)c(F)cc3c(=O)c(C(=O)O)cn1c23.C[C@H]1COc2c(N3CCN(C)CC3)c(F)cc3c(=O)c(C(=O)O)cn1c23.O [LEVOFLOXACIN]
MIC (Staphylococcus aureus [1]): 0.125 mg/L | MIC (Staphylococcus aureus [2]): 0.25 mg/L | MIC (Staphylococcus aureus [3]): 0.125 mg/L | MIC (Staphylococcus aureus [4]): 16 mg/L | MIC (Staphylococcus aureus [5]): > 32 mg/L | MIC (Enterococcus faecalis): 0.25 mg/L | MIC (Enterococcus faecium): 4 mg/L | MIC (Streptococcus pneumoniae): 0.125 mg/L | MIC (Streptococcus pyogenes): 0.06 mg/L | MIC [6]: 0.5 mg/L | MIC (Haemophilus influenzae): 0.06 mg/L

CC(=O)NC[C@H]1CN(c2ccc(N3CCOCC3)c(F)c2)C(=O)O1 [LINEZOLID]
MIC (Staphylococcus aureus [1]): 1 mg/L (≈ 2.96 µM) | MIC (Staphylococcus aureus [2]): 1 mg/L (≈ 2.96 µM) | MIC (Staphylococcus aureus [4]): 1 mg/L (≈ 2.96 µM) | MIC (Staphylococcus aureus [5]): 16 mg/L (≈ 47.4 µM) | MIC (Enterococcus faecium): 2 mg/L (≈ 5.93 µM) | MIC (Streptococcus pyogenes): 0.5 mg/L (≈ 1.48 µM) | MIC (Haemophilus influenzae): 4 mg/L (≈ 11.9 µM)

CN[C@H](CC(C)C)C(=O)N[C@H]1C(=O)N[C@@H](CC(N)=O)C(=O)N[C@H]2C(=O)N[C@H]3C(=O)N[C@H](C(=O)N[C@H](C(=O)O)c4cc(O)cc(O)c4-c4cc3ccc4O)[C@H](O)c3ccc(c(Cl)c3)Oc3cc2cc(c3O[C@@H]2O[C@H](CO)[C@@H](O)[C@H](O)[C@H]2O[C@H]2C[C@](C)(N)[C@H](O)[C@H](C)O2)Oc2ccc(cc2Cl)[C@H]1O [VANCOMYCIN]
MIC (Enterococcus faecalis): 2 mg/L (≈ 1.38 µM) | MIC (Streptococcus pneumoniae): 2 mg/L (≈ 1.38 µM) | MIC (Streptococcus pyogenes): 2 mg/L (≈ 1.38 µM)
